Measurements taken from US10336761B2, “TGFβ receptor antagonist” (BRISTOL-MYERS SQUIBB COMPANY, priority 2015, dated 2019).

Target: HIS-TGFβR1 T204D (Homo sapiens (Human), UniProt P36897, T204D)
Experiment: HTRF probe-displacement assay, HIS-TGFβR1 T204D
Format: binding
Conditions: 1 hour at room temperature

Chain of HIS-TGFβR1 T204D (P36897 34-503 T204D): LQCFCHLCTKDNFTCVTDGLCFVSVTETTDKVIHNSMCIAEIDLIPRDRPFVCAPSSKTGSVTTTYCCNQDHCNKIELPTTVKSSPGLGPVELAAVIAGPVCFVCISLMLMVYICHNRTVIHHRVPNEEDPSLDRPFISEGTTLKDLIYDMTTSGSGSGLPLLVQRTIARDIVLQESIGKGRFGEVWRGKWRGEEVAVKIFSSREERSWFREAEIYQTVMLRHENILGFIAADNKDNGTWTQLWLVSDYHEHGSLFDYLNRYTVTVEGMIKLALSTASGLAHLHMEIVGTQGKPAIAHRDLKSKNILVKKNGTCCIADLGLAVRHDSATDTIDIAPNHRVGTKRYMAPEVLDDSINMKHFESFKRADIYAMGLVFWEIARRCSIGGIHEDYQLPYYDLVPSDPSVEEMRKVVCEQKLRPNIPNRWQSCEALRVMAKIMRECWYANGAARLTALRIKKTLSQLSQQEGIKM

Compound | IC50 [nM]
O=C(c1cnccc1Nc1nc(-c2cccc(C(F)F)n2)nn2cccc12)N1CCC(O)CC1 [Example 200, 1-[4-({2-[6-(difluoromethyl)pyridin-2-yl]pyrrolo[2,1-f][1,2,4]triazin-4-yl}amino)pyridine-3-carbonyl]piperidin-4-ol] | 3500
CN1CCN(Cc2ccn3nc(-c4ccc(F)cn4)nc(Nc4ccncc4F)c23)CC1 [Example 234, 3-fluoro-N-[2-(5-fluoropyridin-2-yl)-5-[(4-methylpiperazin-1-yl)methyl]pyrrolo[2,1-f][1,2,4]triazin-4-yl]pyridin-4-amine] | 3
COc1cccc(-c2nc(NCc3ccncc3)c3cccn3n2)n1 [Example 31, 2-(6-methoxypyridin-2-yl)-N-(pyridin-4-ylmethyl)pyrrolo[2,1-f][1,2,4]triazin-4-amine] | 810
Fc1cnccc1Nc1nc(-c2ccccn2)nn2ccc(CNCCC3CCCN3)c12 (centres unmarked) [Example 270, 3-fluoro-N-[2-(pyridin-2-yl)-5-({[2-(pyrrolidin-2-yl)ethyl]amino}methyl)pyrrolo[2,1-f][1,2,4]triazin-4-yl]pyridin-4-amine] | 3.6
Fc1cnccc1Nc1nc(-c2nc(C(F)(F)F)cs2)nn2cccc12 [Example 17, N-(3-fluoropyridin-4-yl)-2-(4-(trifluoromethyl)thiazol-2-yl)pyrrolo[2,1-f][1,2,4]triazin-4-amine] | 0.72
COc1nccc(-c2nc(Nc3ccncc3F)c3cccn3n2)n1 [Example 101, 3-fluoro-N-[2-(2-methoxypyrimidin-4-yl)pyrrolo[2,1-f][1,2,4]triazin-4-yl]pyridin-4-amine] | 530
Fc1cnccc1Nc1nc(-c2ccnc(C(F)(F)F)n2)nn2cccc12 [Example 100, 3-fluoro-N-{2-[2-(trifluoromethyl)pyrimidin-4-yl]pyrrolo[2,1-f][1,2,4]triazin-4-yl}pyridin-4-amine] | 15
Cc1cccc(-c2nc(Nc3ccncc3C(=O)N3CCOCC3)c3cccn3n2)n1 [Example 163, N-[2-(6-methylpyridin-2-yl)pyrrolo[2,1-f][1,2,4]triazin-4-yl]-3-(morpholine-4-carbonyl)pyridin-4-amine] | 30
CC(C)(O)CNC(=O)c1cnccc1Nc1nc(-c2cccc(C(F)F)n2)nn2cccc12 [Example 188, 4-({2-[6-(difluoromethyl)pyridin-2-yl]pyrrolo[2,1-f][1,2,4]triazin-4-yl}amino)-N-(2-hydroxy-2-methylpropyl)pyridine-3-carboxamide] | 49
CN1CCN(CCCNCc2ccn3nc(-c4ccccn4)nc(Nc4ccncc4F)c23)CC1 [Example 283, 3-fluoro-N-[5-({[3-(4-methylpiperazin-1-yl)propyl]amino}methyl)-2-(pyridin-2-yl)pyrrolo[2,1-f][1,2,4]triazin-4-yl]pyridin-4-amine] | 12
O=C(NCCO)c1cnccc1Nc1nc(-c2cccc(C(F)F)n2)nn2cccc12 [Example 192, 4-({2-[6-(difluoromethyl)pyridin-2-yl]pyrrolo[2,1-f][1,2,4]triazin-4-yl}amino)-N-(2-hydroxyethyl)pyridine-3-carboxamide] | 3.9
Fc1cnccc1Nc1nc(-c2cccc(C(F)(F)F)n2)nn2ccc(CN3CCC(F)(F)CC3)c12 [Example 123, N-{5-[(4,4-difluoropiperidin-1-yl)methyl]-2-[6-(trifluoromethyl)pyridin-2-yl]pyrrolo[2,1-f][1,2,4]triazin-4-yl}-3-fluoropyridin-4-amine] | 13
FC(F)(F)c1cccc(-c2nc(Nc3ccncn3)c3cccn3n2)n1 [Example 255, N-{2-[6-(trifluoromethyl)pyridin-2-yl]pyrrolo[2,1-f][1,2,4]triazin-4-yl}pyrimidin-4-amine] | 28
Fc1cnccc1Nc1nc(-c2ccccn2)nn2ccc(CNc3cc(-c4ccccc4)[nH]n3)c12 [Example 298, 3-fluoro-N-(5-{[(5-phenyl-1H-pyrazol-3-yl)amino]methyl}-2-(pyridin-2-yl)pyrrolo[2,1-f][1,2,4]triazin-4-yl)pyridin-4-amine] | 27
OC1CCN(Cc2ccn3nc(-c4ccccn4)nc(Nc4ccncc4F)c23)CC1 [Example 243, 1-({4-[(3-fluoropyridin-4-yl)amino]-2-(pyridin-2-yl)pyrrolo[2,1-f][1,2,4]triazin-5-yl}methyl)piperidin-4-ol] | 0.58
FC(F)c1cccc(-c2nc(Nc3ccncc3Cl)c3cccn3n2)n1 [Example 80, 3-chloro-N-{2-[6-(difluoromethyl)pyridin-2-yl]pyrrolo[2,1-f][1,2,4]triazin-4-yl}pyridin-4-amine] | 1.1
CC(C)(O)CNCc1ccn2nc(-c3cccc(C(F)F)n3)nc(Nc3ccncc3F)c12 [Example 116, 1-[({2-[6-(difluoromethyl)pyridin-2-yl]-4-[(3-fluoropyridin-4-yl)amino]pyrrolo[2,1-f][1,2,4]triazin-5-yl}methyl)amino]-2-methylpropan-2-ol] | 2.3
O=C(N[C@@H]1CCC[C@@H]1O)c1cnccc1Nc1nc(-c2cccc(C(F)F)n2)nn2cccc12 [Example 198, 4-({2-[6-(difluoromethyl)pyridin-2-yl]pyrrolo[2,1-f][1,2,4]triazin-4-yl}amino)-N-[(1R,2S)-2-hydroxycyclopentyl]pyridine-3-carboxamide] | 140

Compound | IC50 [nM]
Fc1ccc(-c2nc(Nc3ccncc3Cl)c3cccn3n2)nc1 [Example 4, 3-chloro-N-[2-(5-fluoropyridin-2-yl)pyrrolo[2,1-f][1,2,4]triazin-4-yl]pyridin-4-amine] | 0.59
COC(=O)Nc1cc(Nc2nc(-c3cccc(OC)n3)nn3cccc23)ccn1 [Example 68, Methyl N-(4-{[2-(6-methoxypyridin-2-yl)pyrrolo[2,1-f][1,2,4]triazin-4-yl]amino}pyridin-2-yl)carbamate] | 5
CC(=O)Nc1cc(Nc2nc(-c3cccc(C(F)(F)F)n3)nn3ccc(CNCC(C)(C)O)c23)ccn1 [Example 254, N-{4-[(5-{[(2-hydroxy-2-methylpropyl)amino]methyl}-2-[6-(trifluoromethyl)pyridin-2-yl]pyrrolo[2,1-f][1,2,4]triazin-4-yl)amino]pyridin-2-yl}acetamide] | 2
COC(=O)Nc1cc(Nc2nc(-c3cccc(C(F)(F)F)n3)nn3cccc23)ccn1 [Example 312, Methyl N-[4-({2-[6-(trifluoromethyl)pyridin-2-yl]pyrrolo[2,1-f][1,2,4]triazin-4-yl}amino)pyridin-2-yl]carbamate] | 0.87
Oc1cccc(N2CCN(Cc3ccn4nc(-c5ccccn5)nc(Nc5ccncc5F)c34)CC2)c1 [Example 275, 3-[4-({4-[(3-fluoropyridin-4-yl)amino]-2-(pyridin-2-yl)pyrrolo[2,1-f][1,2,4]triazin-5-yl}methyl)piperazin-1-yl]phenol] | 0.47
CC(C)(O)CCNC(=O)c1cnccc1Nc1nc(-c2cccc(C(F)F)n2)nn2cccc12 [Example 187, 4-({2-[6-(difluoromethyl)pyridin-2-yl]pyrrolo[2,1-f][1,2,4]triazin-4-yl}amino)-N-(3-hydroxy-3-methylbutyl)pyridine-3-carboxamide] | 21
NC(=O)c1cnccc1Nc1nc(-c2ccccn2)nn2cccc12 [Example 83, 4-{[2-(pyridin-2-yl)pyrrolo[2,1-f][1,2,4]triazin-4-yl]amino}pyridine-3-carboxamide] | 0.76
COc1cccc(-c2nc(Nc3ccnc(NCCC(C)(C)O)c3)c3cccn3n2)n1 [Example 134, 4-[(4-{[2-(6-methoxypyridin-2-yl)pyrrolo[2,1-f][1,2,4]triazin-4-yl]amino}pyridin-2-yl)amino]-2-methylbutan-2-ol] | 360
CC(=O)Nc1cc(Nc2nc(-c3cccc(C(F)F)n3)nn3cccc23)ccn1 [Example 13, N-[4-({2-[6-(difluoromethyl)pyridin-2-yl]pyrrolo[2,1-f][1,2,4]triazin-4-yl}amino)pyridin-2-yl]acetamide] | 0.19
CC1(NCc2ccn3nc(-c4ccccn4)nc(Nc4ccncc4F)c23)CCC1 [Example 241, 3-fluoro-N-(5-{[(1-methylcyclobutyl)amino]methyl}-2-(pyridin-2-yl)pyrrolo[2,1-f][1,2,4]triazin-4-yl)pyridin-4-amine] | 0.27
O=C(NC1CCC(F)(F)CC1)c1cnccc1Nc1nc(-c2cccc(C(F)F)n2)nn2cccc12 [Example 201, N-(4,4-difluorocyclohexyl)-4-({2-[6-(difluoromethyl)pyridin-2-yl]pyrrolo[2,1-f][1,2,4]triazin-4-yl}amino)pyridine-3-carboxamide] | 410
OCC1(NCc2ccn3nc(-c4ccccn4)nc(Nc4ccncc4F)c23)CCCC1 [Example 244, {1-[({4-[(3-fluoropyridin-4-yl)amino]-2-(pyridin-2-yl)pyrrolo[2,1-f][1,2,4]triazin-5-yl}methyl)amino]cyclopentyl}methanol] | 6.3
CC(O)c1cccc(-c2nc(Nc3ccncc3F)c3cccn3n2)n1 (centres unmarked) [Example 32, 1-(6-{4-[(3-fluoropyridin-4-yl)amino]pyrrolo[2,1-f][1,2,4]triazin-2-yl}pyridin-2-yl)ethan-1-ol] | 70
COc1cccc(-c2nc(Nc3ccncc3Cl)c3cccn3n2)n1 [Example 60, 3-chloro-N-[2-(6-methoxypyridin-2-yl)pyrrolo[2,1-f][1,2,4]triazin-4-yl]pyridin-4-amine] | 5.4
Fc1c(Nc2nc(-c3cccc(C(F)F)n3)nn3cccc23)ccnc1Cl [Example 7, 2-chloro-N-{2-[6-(difluoromethyl)pyridin-2-yl]pyrrolo[2,1-f][1,2,4]triazin-4-yl}-3-fluoropyridin-4-amine] | 88
O=C(NCCN1CCCCC1)c1cnccc1Nc1nc(-c2cccc(C(F)(F)F)n2)nn2cccc12 [Example 171, N-[2-(piperidin-1-yl)ethyl]-4-({2-[6-(trifluoromethyl)pyridin-2-yl]pyrrolo[2,1-f][1,2,4]triazin-4-yl}amino)pyridine-3-carboxamide] | 120
O=C(CN1CC[C@@H](O)C1)Nc1cc(Nc2nc(-c3cccc(C(F)(F)F)n3)nn3cccc23)ccn1 [Example 327, 2-[(3R)-3-hydroxypyrrolidin-1-yl]-N-[4-({2-[6-(trifluoromethyl)pyridin-2-yl]pyrrolo[2,1-f][1,2,4]triazin-4-yl}amino)pyridin-2-yl]acetamide] | 0.3
